Measured values: patent publication US6316594A, “Antimicrobial peptide isolated from parasilurus asotus and its uses” (priority 1998, dated 2001)
Peptide text beside a SMILES is read from it.

Assays:
[1] = tested on: Candida albicans ATCC 10231; test: MIC, microdilution in 96-well plate; format: cell-based; conditions: overnight 37° C., 3% TSB
Excerpt: (§1) All of the microorganisms used in the invention were obtained from the American Type Culture Collection (ATCC) Used were Bacillus subtilis ATCC 62037, Staphylococcus aureus ATCC 15752, Streptococcus mutans ATCC 25175, Pseudomonas putida ATCC 17426, Escherichia coli ATCC 27325, Salmonella typhimurium ATCC 15277, Seratia sp. ATCC 21074, Cryptococcus neoformans ATCC 34881, Saccharomyces cerevisiae ATCC 44774 and Candida albicans ATCC 10231.
(§2) The parasin I and its derivatives obtained in Example I were lyophilized, resuspended in water and assayed for antimicrobial activity against B. subtilis ATCC 62037. The purity of the isolated peptides was analyzed by reverse-phase HPLC and MALDI-MS (Kratos Kompact MALDI, England). The antimicrobial activity of the samples was determined during each purification step by the radial diffusion assay using B. subtilis ATCC 62037 according to the method of Lehrer et al. ((1991) J. Immunol. Methods, 137, 167-173). A 20 ml culture of B. subtilis ATCC 62037 cell in mid-logarithmic phase was washed with 10 mM sodium phosphate buffer (NAPB), pH 7.4, at […], and resuspended in 10 ml of the same buffer. A cell suspension containing 1×10^6 bacterial colony forming units (CFUs) was added to 6 ml of an underlayer agar (10 mM sodium phosphate, 1% (v/v) trypticase soy broth (TSB), 1% (w/v) agarose, pH 6.5) and this resulting mixture was poured into a Petri dish. Samples were added, at an amount of 5 μl, directly in 3-mm wells which were made on the solidified underlayer agar. After incubation for 3 hours at 37° C., the underlayer agar was covered with a nutrient-rich top agar overlay (6% (w/v) TSB, 1% (w/v) agarose) and incubated overnight at 37° C. Antimicrobial activity was determined by observing the zone of suppression of bacterial growth around the 3-mm wells. The minimal inhibitory concentrations (MICs) of the isolated peptide against the microorganisms were determined as described by Moore et al. ((1991) J. Biol. Chem., 266, 19851-19857). 100 μl microorganism suspensions (10^5 CFU/ml) in 3% (w/v) TSB were mixed with serial two-fold dilutions of the isolated peptide in a sterilized 96-well microtiter plate (Nunc, Denmark). The final concentration of the peptide ranged 0.5-200 μg/ml. The 96-well plate was incubated overnight at 37° C. and the inhibition of growth was determined by measuring the absorbance at 620 nm on a microplate reader, such as that sold by B10-Rad, U.S.A., under the brand name of Model 550. The MIC was defined as the lowest concentration of peptide that inhibited growth. In respect to the test for antimicrobial activity, 10 different microorganisms, including Gram-negative bacteria, Gram-positive bacteria and fungi were used.

[2] = tested on: Bacillus subtilis ATCC 62037; test: MIC, microdilution in 96-well plate; format: cell-based; conditions: overnight 37° C., 3% TSB
Excerpt: as §1, §2

[3] = tested on: Cryptococcus neoformans ATCC 34881; test: MIC, microdilution in 96-well plate; format: cell-based; conditions: overnight 37° C., 3% TSB
Excerpt: as §1, §2

[4] = tested on: Staphylococcus aureus ATCC 15752; test: MIC, microdilution in 96-well plate; format: cell-based; conditions: overnight 37° C., 3% TSB
Excerpt: as §1, §2

[5] = tested on: Pseudomonas putida ATCC 17426; test: MIC, microdilution in 96-well plate; format: cell-based; conditions: overnight 37° C., 3% TSB
Excerpt: as §1, §2

[6] = tested on: Salmonella typhimurium ATCC 15277; test: MIC, microdilution in 96-well plate; format: cell-based; conditions: overnight 37° C., 3% TSB
Excerpt: as §1, §2

Serratia sp. = test: MIC, microdilution in 96-well plate; format: cell-based; conditions: overnight 37° C., 3% TSB
Excerpt: as §1, §2

[7] = tested on: Escherichia coli ATCC 27325; test: MIC, microdilution in 96-well plate; format: cell-based; conditions: overnight 37° C., 3% TSB
Excerpt: as §1, §2

[8] = tested on: Saccharomyces cerevisiae ATCC 44774; test: MIC, microdilution in 96-well plate; format: cell-based; conditions: overnight 37° C., 3% TSB
Excerpt: as §1, §2

[9] = tested on: Streptococcus mutans ATCC 25175; test: MIC, microdilution in 96-well plate; format: cell-based; conditions: overnight 37° C., 3% TSB
Excerpt: as §1, §2

human erythrocytes = test: Hemolytic activity assay; conditions: peptide 200 μg/ml
Protocol: The hemolytic activity of the antimicrobial peptide was assayed as described by Park et al. (9).

| Molecule | MIC [1] [mg/L] | MIC [2] [mg/L] | MIC [3] [mg/L] | MIC [4] [mg/L] | MIC [5] [mg/L] | MIC [6] [mg/L] | MIC (Serratia sp.) [mg/L] | MIC [7] [mg/L] | MIC [8] [mg/L] | MIC [9] [mg/L] | hemolysis (human erythrocytes) [%] |
| --- | --- | --- | --- | --- | --- | --- | --- | --- | --- | --- | --- |
| Buforin I [reference compound] | 4 | 4 | 4 | 4 | 4 | 4 | 8 | 8 | 4 | 8 | – |
| K G R G K Q G G K V R A K A K T R S S (KGRGKQGGKVRAKAKTRSS) [Seq. No. 1] | 1 | 0.5 | 1 | 1 | 2 | 1 | 4 | 0.5 | 1 | 0.5 | – |
| Magainin 2 [reference compound] | 25 | 50 | 12 | 50 | 50 | 25 | 50 | 100 | 25 | 100 | – |
| K G R G K Q G G K V R A K A K (KGRGKQGGKVRAKAK) [Seq. No. 3, synthetic derivative deficient of 4 carboxyl terminal residues of parasin I] | 4 | 1 | 2 | 2 | 2 | 2 | 4 | 1 | 2 | 1 | – |
| CC(C)[C@H](NC(=O)[C@H](CCCCN)NC(=O)CNC(=O)CNC(=O)[C@H](CCC(N)=O)NC(=O)[C@H](CCCCN)NC(=O)CNC(=O)[C@H](CCCNC(=N)N)NC(=O)CNC(=O)[C@@H](N)CCCCN)C(=O)N[C@@H](CCCNC(=N)N)C(=O)N[C@@H](C)C(=O)N[C@@H](CCCCN)C(=O)N[C@@H](C)C(=O)N[C@@H](CCCCN)C(=O)N[C@H](C(=O)N[C@@H](CCCNC(=N)N)C(=O)N[C@@H](CO)C(=O)N[C@@H](CO)C(=O)O)[C@@H](C)O [Parasin I, Lys-Gly-Arg-Gly-Lys-Gln-Gly-Gly-Lys-Val-Arg-Ala-Lys-Ala-Lys-Thr-Arg-Ser-Ser] (H-KGRGKQGGKVRAKAKTRSS-OH) | – | – | – | – | – | – | – | – | – | – | 0.2 |
| K G R G K Q G G K V R A K A K T R (KGRGKQGGKVRAKAKTR) [Seq. No. 2, synthetic derivative deficient of 2 carboxyl terminal residues of parasin I] | 1 | 0.5 | 1 | 1 | 2 | 1 | 2 | 0.5 | 2 | 0.5 | – |
